Converted amounts (≈) assume the structure as drawn. Where two headings read alike, the source gives them in different places.
Tests used:
[1] = tested on: breast carcinoma subcutaneous tumors; assay: Tumor growth assay, established breast carcinoma subcutaneous tumors; type: in vivo, mouse; conditions: FIG. 9B; cyclophosphamide single dose 80 mg/kg; huKS-IL2 30 μg x 5 daily doses, 3 days after cyclophosphamide in combination; Day 25
[2] = tested on: 4T1 breast carcinoma cells; conditions: FIG. 9; cyclophosphamide single dose 15 or 40 mg/kg; combination: huKS-IL2 15 ug/day for 5 days from three days later
Protocol: 4T1 breast carcinoma cells were injected intravenously into immuno-competent mice to establish pulmonary metastases 3 days before treatment.

[3] = tested on: lung carcinoma subcutaneous tumors; assay: Tumor growth assay, established lung carcinoma subcutaneous tumors; type: in vivo, mouse; conditions: FIG. 9C; cyclophosphamide single dose 80 mg/kg; huKS-IL2 20 μg x 5 daily doses, 3 days after cyclophosphamide in combination; Day 20
[4] = tested on: LLC/KSA tumors; type: in vivo
Protocol: (§1) For tumor growth studies either LLC/KSA or CT26/KSA tumors were implanted subcutaneously on the backs of mice. For LLC/KSA studies, tumors were transplanted from several stock tumors that had been injected with a single cell suspension of 1×10^6 cells in 100 ul of PBS. After about two weeks, tumors were aseptically collected, passed through a sieve fitted with a 150 μm screen. Cells were then passed through a syringe and 23 gauge needle tow or three times, washed twice, and resuspended in PBS. A single cell suspension of 1×10^6 LLC/KSA cells in 100 ul of PBS was injected subcutaneously using a 30 ½ gauge needle on the backs of mice. For CT26/KSA studies, cells growing exponentially in culture were injected as a single cell suspension of 1×10^6 cells in 100 μl of PBS. After tumors had become established, about 2 weeks after implantation, dosing was initiated on Day 0. Tumors were measured with calipers in three dimensions twice weekly. Tumor volumes were calculated using the equation: Volume=½×4/3π(L/2×W/2×H) where L=length, W=width and H=height of the tumor. Animals were weighed and general health was monitored during the course of the study. When tumors became necrotic or if animals became moribund, the animals were euthanized by CO2 asphyxiation.
Data are presented in graphic form. Graphs depict individual or average tumor volumes (+/− SEM) during and after dosing. Data are also expressed as the percent of control of average tumor volumes from treated mice relative to vehicle treated mice. Student's t test was performed on the individual tumor volumes to determine significant differences.

[5] = tested on: CT26/KSA colon carcinoma skin tumors; assay: CT26/KSA established skin tumor growth assay; type: in vivo, mouse; conditions: paclitaxel single dose 75 mg/kg
Protocol: as §1
Data are presented in graphic form. Graphs depict individual or average tumor volumes (+/− SEM) during and after dosing. […]

[6] = tested on: CT26/KSA cells; assay: Cytotoxicity assay (MTS, verified by crystal violet); type: cell-based; conditions: Mus musculus, CT26, 144 h; read-out: Paclitaxel IC50
Protocol: (§2) The cell lines engineered for use in animal models (example 1) were tested for their sensitivity to taxane-induced cytotoxicity in cell culture in the presence or absence of the an IL-2 based immunocytokine consisting of the humanized form of the KS-1/4 antibody fused at the carboxyl terminus of the H chain to human IL-2 (huKS-huγ1-huIL2, hereafter abbreviated, KS-IL2). Cells were seeded at 1000 cell/well in 96 well flat-bottom plates and incubated for 24 hours at 37° C., 7% CO2. Paclitaxel, at 2-fold dilutions from 200 ng/ml to 3.125 ng/ml, KS-IL2, at 200 ng/ml and IL-2, at 33.3 ng/ml (the equivalent amount of IL-2 in KS-IL2) were added in duplicate to the cell culture plates and incubated for 6 days at 37° C., 7% CO2. The MTS calorimetric assay (Promega), a measure of cell viability based on the cellular conversion of a tetrazolium salt, was performed directly in the 96 well plates. After plates were read and recorded, viable adherent cells were stained with Crystal violet (Sigma, St. Louis, Mo). Crystal violet stained plates were used to verify MTS assay results. […] The IC50 is the concentration of drug that produced cytotoxicity at a level of 50% of control.
(§3) A cytotoxicity assay was performed with paclitaxel (3 to 200 ng/ml) alone or combined with KS-IL2 (200 ng/ml) or IL-2 (33.3 ng/ml, the equivalent amount of IL-2 in KS-IL2) against CT26/KSA, LLC/KSA and 4T1/KSA cells.

[7] = tested on: LLC/KSA cells; assay: as above; type: cell-based; conditions: Mus musculus, 144 h; read-out: Paclitaxel IC50
Protocol: as §2, §3

[8] = tested on: 4T1/KSA breast carcinoma cells; assay: Experimental lung metastasis model with 4T1/KSA cells; type: in vivo, mouse; conditions: for reduction of average lung weights: FIG. 4, combination with KS-IL2 15 μg/dose x 3 days given 4 hr after paclitaxel
Protocol: For experimental lung metastases studies, a single cell suspension of 2.5×10^5 4T1/KSA cells in 100 μl of PBS was slowly injected using a 27½ gauge needle into the lateral tail vein on Day 0. About 3 weeks-after inoculation animals were sacrificed; their lungs were removed and weighed. […] Data are presented in graphic form. Graphs depict average tumor burdens (+/− SEM) at time of sacrifice. Tumor burden was determined by subtracting the weight of a normal lung from the weight of the experimental lungs.
For this experiment we used an experimental lung metastasis model induced with 4T1/KSA breast carcinoma cells. The doses of the drugs were selected to be sub-optimal by themselves so that any potential additive or synergistic activity could be observed.

[9] = tested on: 4T1/KSA cells; assay: Cytotoxicity assay (MTS, verified by crystal violet); type: cell-based; conditions: Mus musculus, 144 h; read-out: Paclitaxel IC50
Protocol: as §2, §3

[10] = tested on: CT26/KSA liver metastases; conditions: FIG. 6, combination: KS-IL2 7 ug for 5 days from one day later
Protocol: For experimental hepatic metastases studies, mice were anesthetized using 80 mg/kg ketamine HCL (Fort Dodge Animal Health, Fort Dodge, Iowa) and 5 mg/kg xylazine (Bayer, Shawnee Mission, Kans.). A single cell suspension of 1×10^5 CT26/KSA cells in 100 μl of DMEM containing 25 mM HEPES (GIBCO) was injected using a 27½ gauge needle beneath the splenic capsule over a period of 60 seconds on Day 0. After another 2 minutes the splenic vessels were cauterized with a cautery unit (Roboz, Rockville, Md.) and the spleen removed. Animals were sutured using autoclips. Three weeks after inoculation the animals were sacrificed; their livers were removed and weighed. The livers were then fixed and stained in Bouin's solution (Sigma, St. Louis Mo.).
Graphs depict average tumor burdens (+/− SEM) at the time of sacrifice. Tumor burdens were determined by subtracting the weight of a normal liver from the weight of the experimental livers. Data are also expressed as the percent of control of the average tumor burden from treated mice relative to vehicle treated mice. Student's t test was performed on the individual tumor burdens to determine significant differences.
A second experiment was performed using the CT26/KSA model, this time testing the effect of combined therapy on established liver metastases and again using the 24 hr delay between paclitaxel administration and KS-IL2 treatment. We also compared the dose response of paclitaxel in the combination therapy. Mice were injected with 25, 50, or 75 mg/kg of paclitaxel on Day 5 after metastasis induction, alone or followed one day later with KS-IL2 (7 ug) for 5 days.

[11] = cited from earlier work
[12] = tested on: multidrug resistant tumors; conditions: cited from earlier work
[13] = target: P-glycoprotein (Homo sapiens, UniProt P08183); conditions: cited from earlier work
P-glycoprotein, sequence (P08183 whole entry): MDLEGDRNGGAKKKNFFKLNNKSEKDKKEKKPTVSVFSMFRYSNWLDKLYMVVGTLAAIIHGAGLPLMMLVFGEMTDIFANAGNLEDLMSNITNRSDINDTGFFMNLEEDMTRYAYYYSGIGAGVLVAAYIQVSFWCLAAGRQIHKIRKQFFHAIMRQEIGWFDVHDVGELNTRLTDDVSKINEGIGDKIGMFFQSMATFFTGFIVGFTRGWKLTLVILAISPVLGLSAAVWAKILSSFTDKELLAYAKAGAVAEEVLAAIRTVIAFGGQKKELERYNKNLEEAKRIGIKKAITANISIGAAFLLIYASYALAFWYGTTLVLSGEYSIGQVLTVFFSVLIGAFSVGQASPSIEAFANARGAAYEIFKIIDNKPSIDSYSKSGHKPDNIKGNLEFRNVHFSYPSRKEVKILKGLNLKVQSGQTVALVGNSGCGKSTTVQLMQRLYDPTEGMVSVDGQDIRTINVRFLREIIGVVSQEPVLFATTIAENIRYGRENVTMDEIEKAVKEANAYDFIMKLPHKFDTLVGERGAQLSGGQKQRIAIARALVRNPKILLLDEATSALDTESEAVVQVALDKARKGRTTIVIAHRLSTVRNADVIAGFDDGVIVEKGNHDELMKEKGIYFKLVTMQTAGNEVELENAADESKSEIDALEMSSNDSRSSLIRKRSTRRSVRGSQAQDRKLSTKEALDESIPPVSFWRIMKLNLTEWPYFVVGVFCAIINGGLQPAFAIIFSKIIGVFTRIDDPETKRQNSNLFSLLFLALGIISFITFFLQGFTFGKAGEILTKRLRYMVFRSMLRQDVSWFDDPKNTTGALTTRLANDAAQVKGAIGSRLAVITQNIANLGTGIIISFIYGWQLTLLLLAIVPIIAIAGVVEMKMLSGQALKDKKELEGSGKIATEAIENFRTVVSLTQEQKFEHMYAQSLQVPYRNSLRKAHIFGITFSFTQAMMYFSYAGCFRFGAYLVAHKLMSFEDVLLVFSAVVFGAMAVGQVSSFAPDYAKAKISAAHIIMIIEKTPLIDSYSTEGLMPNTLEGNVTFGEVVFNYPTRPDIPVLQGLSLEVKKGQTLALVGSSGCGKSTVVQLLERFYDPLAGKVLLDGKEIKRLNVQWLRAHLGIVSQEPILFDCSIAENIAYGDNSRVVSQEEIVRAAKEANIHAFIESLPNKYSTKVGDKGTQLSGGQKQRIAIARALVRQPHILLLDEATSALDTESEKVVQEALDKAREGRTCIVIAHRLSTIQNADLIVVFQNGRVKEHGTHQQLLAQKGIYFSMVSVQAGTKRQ

[14] = FIG. 3, paclitaxel multiple doses 50 mg/kg every other day, combination: KS-IL2 one week following paclitaxel
[15] = comparative statement, Polizzi et al. 1999

O=P1(N(CCCl)CCCl)NCCCO1 (centres unmarked) [cyclophosphamide]
reduction of average tumor volumes [1]: 69% | lung metastasis tumor burden [2]: modest reduction | reduction of average tumor volumes [3]: 27%

N.N.O=C([O-])C1(C(=O)[O-])CCC1.[Pt+2] [Carboplatin]
effect on tumor growth / average tumor volume on Day 20 ([4]; FIG. 10, Carboplatin 75 mg/kg Day 0, KS-IL2 20 ug per day for 5 days, three days after Carboplatin in combination): modest decrease

CC(=O)O[C@H]1C(=O)[C@@]2(C)[C@H]([C@H](OC(=O)c3ccccc3)[C@]3(O)C[C@H](OC(=O)[C@H](O)[C@@H](NC(=O)c4ccccc4)c4ccccc4)C(C)=C1C3(C)C)[C@]1(OC(C)=O)CO[C@@H]1C[C@@H]2O [paclitaxel]
effect on tumor growth ([5]; Example 9, huKS-muγ2a-muIL12 5 μg per day for 5 days, starting 24 hr after paclitaxel in combination): very little effect | effect on tumor growth, alone ([5]; FIG. 5): no effect | effect on tumor growth, agent given alone ([4]; FIG. 2, paclitaxel single dose 80 mg/kg, KS-IL2 20 μg i.v. Days 0-4): No effect | average tumor volume [4, 14]: 63 % of control | tumor growth delay (TGD) [4, 14]: 4 days | IC50 [6]: 0.027 µg/mL (≈ 0.0316 µM) | IC50 [7]: 0.006 µg/mL (≈ 0.00703 µM) | weight loss, comparison of groups ([8]; 25 mg/kg of paclitaxel given 3 times every other day): greatest weight loss | reduction of average lung weights ([8]; paclitaxel multiple doses 25 mg/kg x 3 days): 49% | reduction of average lung weights ([8]; paclitaxel single dose 75 mg/kg): 43% | IC50 [9]: 0.016 µg/mL (≈ 0.0187 µM) | tumor burden ([10]; paclitaxel 25 mg/kg on Day 5): 49 % of control | tumor burden ([10]; paclitaxel 50 mg/kg on Day 5): 23 % of control | tumor burden ([10]; paclitaxel 75 mg/kg on Day 5): 10 % of control

CC(=O)O[C@H]1C(=O)[C@@]2(C)[C@H]([C@H](OC(=O)c3ccccc3)[C@]34OC(=O)O[C@H]3[C@H](OC(=O)[C@H](O)[C@H](CC(C)C)NC(=O)OC(C)(C)C)C(C)=C1C4(C)C)[C@]1(OC(C)=O)CO[C@@H]1C[C@@H]2O [IDN5109]
neurotoxic side effects [11, 15]: less neurotoxic side effects | tolerated dose [11, 15]: higher tolerated dose | oral bioavailability ([11]; in vivo, po): orally bioavailable | activity against multidrug resistant tumors [12]: generally more active | substrate for P-glycoprotein [13]: poor substrate

— patent US7517526B2, “Enhancement of antibody-cytokine fusion protein mediated immune responses by combined treatment with immunocytokine uptake enhancing agents” (Merck Patent GmbH, priority 2000, dated 2009)
